Results as given in ChEMBL document CHEMBL4017493, “Peptide Half-Life Extension: Divalent, Small-Molecule Albumin Interactions Direct the Systemic Properties of Glucagon-Like Peptide 1 (GLP-1) Analogues” (J Med Chem, 2017).
The source made the active and inactive calls. The rule behind the calls is not given here.

Legend:
[1] = Induction of self aggregation in pH 7.4 PBS buffer assessed as retention volume by size exclusion chromatographic method
Albumin = Albumin (Homo sapiens, UniProt P02768); test: Binding affinity to human serum albumin by SPR analysis; format: ADME; details: isolated protein
Albumin, sequence (P02768 whole entry): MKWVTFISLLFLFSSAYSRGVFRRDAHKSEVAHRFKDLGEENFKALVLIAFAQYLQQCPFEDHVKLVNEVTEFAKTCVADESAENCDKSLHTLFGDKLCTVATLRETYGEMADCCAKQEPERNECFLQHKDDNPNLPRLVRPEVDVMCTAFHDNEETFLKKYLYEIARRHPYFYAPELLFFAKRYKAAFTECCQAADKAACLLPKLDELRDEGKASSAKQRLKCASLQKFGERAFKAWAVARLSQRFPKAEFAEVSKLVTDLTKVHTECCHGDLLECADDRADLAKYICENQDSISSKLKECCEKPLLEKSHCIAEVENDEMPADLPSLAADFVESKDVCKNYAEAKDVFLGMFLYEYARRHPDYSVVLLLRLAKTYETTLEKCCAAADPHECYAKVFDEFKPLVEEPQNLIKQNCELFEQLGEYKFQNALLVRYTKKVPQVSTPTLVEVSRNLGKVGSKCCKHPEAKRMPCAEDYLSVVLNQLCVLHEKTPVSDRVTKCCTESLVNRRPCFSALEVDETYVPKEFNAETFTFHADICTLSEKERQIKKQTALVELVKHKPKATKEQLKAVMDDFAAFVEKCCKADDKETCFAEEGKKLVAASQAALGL

Mus musculus [2] = test: Antidiabetic activity in NMRI mouse assessed as blood glucose AUC (0 to 120 mins) at 10 nmol/ml, sc administered 45 mins prior to glucose challenge by OGTT (reference value: 1725 +/- 257 mmol/L); format: functional, organism-based; design: dose 10 nmol/ml, time < 2 hr
Mus musculus [3] = test: Antiobesity activity in NMRI mouse assessed as reduction in acute food intake at 10 nmol/ml, sc measured up to 20 hrs; format: functional, organism-based
Mus musculus [4] = test: Antiobesity activity in NMRI mouse assessed as reduction in cumulative food intake at 10 nmol/ml, sc measured up to 20 hrs; format: functional, organism-based
[5] = Half life in C57Bl/6 mouse plasma at 10 nmol/ml, sc; format: ADME
[6] = Tmax in C57Bl/6 mouse plasma at 10 nmol/ml, sc; format: ADME
[7] = Half life in iv dosed human; format: ADME, organism-based; details: in vivo
[8] = Induction of monodisperse self aggregation in pH 7.4 PBS buffer by dynamic light scattering method
[9] = Induction of self aggregation in pH 7.4 PBS buffer assessed as supramolecular hydrodynamic radii at 1 mg/ml by dynamic light scattering method
Mus musculus [10] = test: Antiobesity activity in NMRI mouse assessed as food intake at 10 nmol/ml, sc measured after 20 hrs (reference value: 3.51 +/- 0.49 g); format: functional

Row | PB (Albumin) | Compound | Vr [1] [mL] | Activity (Mus musculus [4]) | also measured
1 | Dose-dependent effect | CC[C@H](C)[C@H](NC(=O)[C@H](Cc1ccccc1)NC(=O)[C@H](CCC(=O)O)NC(=O)[C@H](CCCCNC(=O)COc1ccc(-c2ccc(F)cc2F)cc1C(=O)O)NC(=O)[C@H](C)NC(=O)[C@H](C)NC(=O)[C@H](CCC(N)=O)NC(=O)CNC(=O)[C@H](CCC(=O)O)NC(=O)[C@H](CC(C)C)NC(=O)[C@H](Cc1ccc(O)cc1)NC(=O)[C@H](CO)NC(=O)[C@H](CO)NC(=O)[C@@H](NC(=O)[C@H](CC(=O)O)NC(=O)[C@H](CO)NC(=O)[C@@H](NC(=O)[C@H](Cc1ccccc1)NC(=O)[C@@H](NC(=O)CNC(=O)[C@H](CCC(=O)O)NC(=O)[C@H](C)NC(=O)[C@@H](N)Cc1cnc[nH]1)[C@@H](C)O)[C@@H](C)O)C(C)C)C(=O)N[C@@H](C)C(=O)N[C@@H](Cc1c[nH]c2ccccc12)C(=O)N[C@@H](CC(C)C)C(=O)N[C@H](C(=O)N[C@@H](CCCNC(=N)N)C(=O)NCC(=O)N[C@@H](CCCNC(=N)N)C(=O)NCC(=O)O)C(C)C | – | inactive | –
2 | Dose-dependent effect | CC[C@H](C)[C@H](NC(=O)[C@H](Cc1ccccc1)NC(=O)[C@H](CCC(=O)O)NC(=O)[C@H](CCCCNC(=O)[C@H](CCCNC(=O)COc1ccc(-c2ccc(F)cc2F)cc1C(=O)O)NC(=O)CC[C@H](NC(=O)Cc1c(C)n(C(=O)c2ccc(Cl)cc2)c2ccc(OC)cc12)C(=O)O)NC(=O)[C@H](C)NC(=O)[C@H](C)NC(=O)[C@H](CCC(N)=O)NC(=O)CNC(=O)[C@H](CCC(=O)O)NC(=O)[C@H](CC(C)C)NC(=O)[C@H](Cc1ccc(O)cc1)NC(=O)[C@H](CO)NC(=O)[C@H](CO)NC(=O)[C@@H](NC(=O)[C@H](CC(=O)O)NC(=O)[C@H](CO)NC(=O)[C@@H](NC(=O)[C@H](Cc1ccccc1)NC(=O)[C@@H](NC(=O)CNC(=O)[C@H](CCC(=O)O)NC(=O)[C@H](C)NC(=O)[C@@H](N)Cc1cnc[nH]1)[C@@H](C)O)[C@@H](C)O)C(C)C)C(=O)N[C@@H](C)C(=O)N[C@@H](Cc1c[nH]c2ccccc12)C(=O)N[C@@H](CC(C)C)C(=O)N[C@H](C(=O)N[C@@H](CCCNC(=N)N)C(=O)NCC(=O)N[C@@H](CCCNC(=N)N)C(=O)NCC(=O)O)C(C)C | 6.6 | Active | Activity [8]: Active; Activity [9]: 21.6 nm; AUC (Mus musculus [2]): 642 mmol·min/L; Activity (Mus musculus [10]): 1.62 g; half-life [5]: 299 min; Tmax [6]: 240 min

The remaining lines, values behind:

Row | Compound | PB (Albumin) | Vr [1] [mL] | Activity (Mus musculus [4]) | also measured
3 | CC[C@H](C)[C@H](NC(=O)[C@H](Cc1ccccc1)NC(=O)[C@H](CCC(=O)O)NC(=O)[C@H](CCCCNC(=O)CC[C@H](NC(=O)Cc1c(C)n(C(=O)c2ccc(Cl)cc2)c2ccc(OC)cc12)C(=O)O)NC(=O)[C@H](C)NC(=O)[C@H](C)NC(=O)[C@H](CCC(N)=O)NC(=O)CNC(=O)[C@H](CCC(=O)O)NC(=O)[C@H](CC(C)C)NC(=O)[C@H](Cc1ccc(O)cc1)NC(=O)[C@H](CO)NC(=O)[C@H](CO)NC(=O)[C@@H](NC(=O)[C@H](CC(=O)O)NC(=O)[C@H](CO)NC(=O)[C@@H](NC(=O)[C@H](Cc1ccccc1)NC(=O)[C@@H](NC(=O)CNC(=O)[C@H](CCC(=O)O)NC(=O)[C@H](C)NC(=O)[C@@H](N)Cc1cnc[nH]1)[C@@H](C)O)[C@@H](C)O)C(C)C)C(=O)N[C@@H](C)C(=O)N[C@@H](Cc1c[nH]c2ccccc12)C(=O)N[C@@H](CC(C)C)C(=O)N[C@H](C(=O)N[C@@H](CCCNC(=N)N)C(=O)NCC(=O)N[C@@H](CCCNC(=N)N)C(=O)NCC(=O)O)C(C)C | Dose-dependent effect | 6.8 to 16 | inactive | AUC (Mus musculus [2]): 614 mmol·min/L; Activity (Mus musculus [3]): inactive; half-life [5]: 55 min; Tmax [6]: 30 min
4 | CC[C@H](C)[C@H](NC(=O)[C@H](Cc1ccccc1)NC(=O)[C@H](CCC(=O)O)NC(=O)[C@H](CCCCNC(=O)COCCOCCNC(=O)COc1ccc(-c2ccc(F)cc2F)cc1C(=O)O)NC(=O)[C@H](C)NC(=O)[C@H](C)NC(=O)[C@H](CCC(N)=O)NC(=O)CNC(=O)[C@H](CCC(=O)O)NC(=O)[C@H](CC(C)C)NC(=O)[C@H](Cc1ccc(O)cc1)NC(=O)[C@H](CO)NC(=O)[C@H](CO)NC(=O)[C@@H](NC(=O)[C@H](CC(=O)O)NC(=O)[C@H](CO)NC(=O)[C@@H](NC(=O)[C@H](Cc1ccccc1)NC(=O)[C@@H](NC(=O)CNC(=O)[C@H](CCC(=O)O)NC(=O)[C@H](C)NC(=O)[C@@H](N)Cc1cnc[nH]1)[C@@H](C)O)[C@@H](C)O)C(C)C)C(=O)N[C@@H](C)C(=O)N[C@@H](Cc1c[nH]c2ccccc12)C(=O)N[C@@H](CC(C)C)C(=O)N[C@H](C(=O)N[C@@H](CCCNC(=N)N)C(=O)NCC(=O)N[C@@H](CCCNC(=N)N)C(=O)NCC(=O)O)C(C)C | – | – | inactive | –
5 | CC[C@H](C)[C@H](NC(=O)[C@H](Cc1ccccc1)NC(=O)[C@H](CCC(=O)O)NC(=O)[C@H](CCCCNC(=O)COc1ccc(-c2ccccc2)cc1C(=O)O)NC(=O)[C@H](C)NC(=O)[C@H](C)NC(=O)[C@H](CCC(N)=O)NC(=O)CNC(=O)[C@H](CCC(=O)O)NC(=O)[C@H](CC(C)C)NC(=O)[C@H](Cc1ccc(O)cc1)NC(=O)[C@H](CO)NC(=O)[C@H](CO)NC(=O)[C@@H](NC(=O)[C@H](CC(=O)O)NC(=O)[C@H](CO)NC(=O)[C@@H](NC(=O)[C@H](Cc1ccccc1)NC(=O)[C@@H](NC(=O)CNC(=O)[C@H](CCC(=O)O)NC(=O)[C@H](C)NC(=O)[C@@H](N)Cc1cnc[nH]1)[C@@H](C)O)[C@@H](C)O)C(C)C)C(=O)N[C@@H](C)C(=O)N[C@@H](Cc1c[nH]c2ccccc12)C(=O)N[C@@H](CC(C)C)C(=O)N[C@H](C(=O)N[C@@H](CCCNC(=N)N)C(=O)NCC(=O)N[C@@H](CCCNC(=N)N)C(=O)NCC(=O)O)C(C)C | – | 9.8 to 16 | – | –
6 | CC[C@H](C)[C@H](NC(=O)[C@H](Cc1ccccc1)NC(=O)[C@H](CCC(=O)O)NC(=O)[C@H](CCCCN)NC(=O)[C@H](C)NC(=O)[C@H](C)NC(=O)[C@H](CCC(N)=O)NC(=O)CNC(=O)[C@H](CCC(=O)O)NC(=O)[C@H](CC(C)C)NC(=O)[C@H](Cc1ccc(O)cc1)NC(=O)[C@H](CO)NC(=O)[C@H](CO)NC(=O)[C@@H](NC(=O)[C@H](CC(=O)O)NC(=O)[C@H](CO)NC(=O)[C@@H](NC(=O)[C@H](Cc1ccccc1)NC(=O)[C@@H](NC(=O)CNC(=O)[C@H](CCC(=O)O)NC(=O)[C@H](C)NC(=O)[C@@H](N)Cc1c[nH]cn1)[C@@H](C)O)[C@@H](C)O)C(C)C)C(=O)N[C@@H](C)C(=O)N[C@@H](Cc1c[nH]c2ccccc12)C(=O)N[C@@H](CC(C)C)C(=O)N[C@H](C(=O)N[C@@H](CCCNC(=N)N)C(=O)NCC(=O)N[C@@H](CCCNC(=N)N)C(=O)NCC(=O)O)C(C)C | – | 14.1 | – | –
7 | CC[C@H](C)[C@H](NC(=O)[C@H](Cc1ccccc1)NC(=O)[C@H](CCC(=O)O)NC(=O)[C@H](CCCCN)NC(=O)[C@H](C)NC(=O)[C@H](C)NC(=O)[C@H](CCC(N)=O)NC(=O)CNC(=O)[C@H](CCC(=O)O)NC(=O)[C@H](CC(C)C)NC(=O)[C@H](Cc1ccc(O)cc1)NC(=O)[C@H](CO)NC(=O)[C@H](CO)NC(=O)[C@@H](NC(=O)[C@H](CC(=O)O)NC(=O)[C@H](CO)NC(=O)[C@@H](NC(=O)[C@H](Cc1ccccc1)NC(=O)[C@@H](NC(=O)CNC(=O)[C@H](CCC(=O)O)NC(=O)[C@H](C)NC(=O)[C@H](Cc1cnc[nH]1)NC(=O)[C@H](CCCNC(=N)N)NC(=O)[C@H](CCC(=O)O)NC(=O)[C@H](Cc1ccccc1)NC(=O)[C@H](CCC(=O)O)NC(=O)[C@H](CC(=O)O)NC(=O)[C@@H](N)Cc1cnc[nH]1)[C@@H](C)O)[C@@H](C)O)C(C)C)C(=O)N[C@@H](C)C(=O)N[C@@H](Cc1c[nH]c2ccccc12)C(=O)N[C@@H](CC(C)C)C(=O)N[C@H](C(=O)N[C@@H](CCCCN)C(=O)NCC(=O)N[C@@H](CCCNC(=N)N)C(N)=O)C(C)C | – | – | – | half-life [7]: < 2 min
8 | CC[C@H](C)[C@H](NC(=O)[C@H](Cc1ccccc1)NC(=O)[C@H](CCC(=O)O)NC(=O)[C@H](CCCCNC(=O)COCCOCCNC(=O)[C@H](CCCNC(=O)COc1ccc(-c2ccc(F)cc2F)cc1C(=O)O)NC(=O)CC[C@H](NC(=O)Cc1c(C)n(C(=O)c2ccc(Cl)cc2)c2ccc(OC)cc12)C(=O)O)NC(=O)[C@H](C)NC(=O)[C@H](C)NC(=O)[C@H](CCC(N)=O)NC(=O)CNC(=O)[C@H](CCC(=O)O)NC(=O)[C@H](CC(C)C)NC(=O)[C@H](Cc1ccc(O)cc1)NC(=O)[C@H](CO)NC(=O)[C@H](CO)NC(=O)[C@@H](NC(=O)[C@H](CC(=O)O)NC(=O)[C@H](CO)NC(=O)[C@@H](NC(=O)[C@H](Cc1ccccc1)NC(=O)[C@@H](NC(=O)CNC(=O)[C@H](CCC(=O)O)NC(=O)[C@H](C)NC(=O)[C@@H](N)Cc1cnc[nH]1)[C@@H](C)O)[C@@H](C)O)C(C)C)C(=O)N[C@@H](C)C(=O)N[C@@H](Cc1c[nH]c2ccccc12)C(=O)N[C@@H](CC(C)C)C(=O)N[C@H](C(=O)N[C@@H](CCCNC(=N)N)C(=O)NCC(=O)N[C@@H](CCCNC(=N)N)C(=O)NCC(=O)O)C(C)C | – | – | Active | –
